Measurements published in patent US8669291B2, “Phenyl substituted cycloalkylamines as monoamine reuptake inhibitors” (Sunovion Pharmaceuticals Inc., priority 2007, dated 2014).

Tests used:
6-OHDA lesioned rat = assay: 6-OHDA-lesioned rat Parkinson's disease model, paw placing test; format: in vivo
Protocol: The effects of compound 4 alone and in combination with L-DOPA were evaluated in the rodent 6-OHDA-lesioned rat Parkinson's disease model. The method, which detects antiparkinson activity (reversal of motor deficits and akinesia), follows that described by Henry et al. (Exp Neurol, 151(2): 334-42, 1998).
Animal Preparation: Prior to surgery, rats were administered pargyline (5 mg/kg, ip) and desipramine (25 mg/kg ip) to optimize subsequent 6-OHDA availability and increase specificity for toxicity to dopaminergic neurons. Rats were then anesthetized with isoflurane and placed in a stereotaxic frame. After exposure of Bregma, a burr hole was drilled in the skull above the right median forebrain bundle at co-ordinates: 2.8 mm posterior and 2 mm lateral to Bregma (according to the atlas of Paxinos and Watson, 1986). […]
Paw Placing Test: The paw placing test assesses correct placing of each forepaw in response to a sensory stimulus. […] The test was quantified as the percentage of successful placing responses of the limb contralateral to the side of the 6-OHDA lesion. […]
Drug Administration: For the monotherapy experiment, the effects of 5 different treatments were assessed: 1) vehicle (sterile water, PO), 2) 3 mg/kg compound 4 (PO), 3) 10 mg/kg compound 4 (PO), 4) 30 mg/kg compound 4 and 5) 6.5 mg/kg (IP) of the positive reference substance, L-DOPA. […]

rats = assay: Rat Locomotor Activity; format: in vivo; conditions: PO
Protocol: In order to ensure effects of the compounds on immobility time were not related to a general stimulant effect on baseline motor activity, locomotor activity was assessed using photocell monitored cages (Med-Associates Inc.). Each test chamber was equipped with infrared photocell beams to measure movement of the animals. Horizontal and vertical activity were measured.
Rats or mice were pretreated with vehicle or test compounds and placed back in home cage, following which they were individually placed in locomotor cages and activity was monitored in 1-5 minute intervals for intervals up to 60 min.
Data were analyzed by one way analysis of variance (ANOVA) followed by post-hoc comparisons where appropriate. An effect was considered significant if p<0.05. Data are represented as the mean and standard error to the mean (s.e.m).

[1] = target: T1, Norepinephrine Transporter (NET) (Mus musculus, UniProt O55192); assay: ex vivo [3H] nisoxetine binding to NET sites in mouse brain; conditions: mice, 60 minutes after treatment
T1 construct: Cortical membranes (400 μL; equivalent to 6.0 mg wet weight of tissue/tube); from tissue; host or cells: frontal cortex of C57BL/6 mice
Protocol: (§1) Receptor occupancy of central noradrenaline (NA), 5-HT and dopamine (DA) transporter sites following peripheral administration of compounds was determined using [^3H] nisoxetine, [^3H] citalopram and [^3H] WIN 35428 binding, respectively. Liquid scintillation counting was used to quantify the radioactivity.
(§2) C57BL/6 mice (25-30 g) were dosed orally with either vehicle or compound at 4 dose levels. Mice were sacrificed 60 minutes after treatment. Whole brains were removed and cortex and striata dissected out before being frozen on dry ice. The brain tissue was stored at −20° C. until the day of the assay. The cortex from each hemisphere was frozen separately. One was used to determine occupancy of NA transporter sites and the other occupancy of 5-HT transporter sites. Striatum was used to determine occupancy of DA transporter sites.
(§3) Frontal cortex from each hemisphere or striata was homogenized individually in ice-cold assay buffer using a tight fitting glass/Teflon homogenizer and used immediately in the binding assay.
Cortical membranes (400 μL; equivalent to 6.0 mg wet weight of tissue/tube) were incubated with 50 μL of [^3H] nisoxetine at a single concentration of 0.6 nM and either 50 μL of buffer (total binding) or 50 μL of mazindol (1 μM; non-specific binding) for 4 h at 4° C. For each animal, three tubes were used for the determination of total binding and three tubes were used for the determination of non-specific binding.
(§4) Membrane bound radioactivity was recovered by filtration under vacuum through Skatron 11731 filters, presoaked in 0.5% PEI, using a Skatron cell harvester. Filters were rapidly washed with ice-cold phosphate buffer and radioactivity (dpm) was determined by liquid scintillation counting (1 mL Packard MV Gold scintillator).
(§5) A value for specific binding (dpm) was generated by the subtraction of mean non-specific binding (dpm) from mean total binding (dpm) for each animal. Data are presented as mean specific binding (dpm) and as a percentage of the vehicle-treated control taken as 100%.

5-HT Transporter (SERT) = target: T2, 5-HT Transporter (SERT) (Mus musculus, UniProt Q60857); assay: ex vivo [3H] citalopram binding to SERT sites in mouse brain; conditions: mice, 60 minutes after treatment
T2 construct: Cortical membranes (400 μL; equivalent to 1.25 mg wet weight of tissue/tube); from tissue; host or cells: frontal cortex of C57BL/6 mice
Protocol: as §1, §2, §3
Cortical membranes (400 μL; equivalent to 1.25 mg wet weight of tissue/tube) were incubated with 50 μl of [^3H] citalopram at a single concentration of 1.3 nM and either 50 μl of buffer (total binding) or 50 μl of paroxetine (0.5 μM; non-specific binding) for 1 h at 27° C. For each animal, three tubes were used for the determination of total binding and three tubes were used for the determination of non-specific binding.
as §4, §5

T2 sequence (Q60857 whole entry): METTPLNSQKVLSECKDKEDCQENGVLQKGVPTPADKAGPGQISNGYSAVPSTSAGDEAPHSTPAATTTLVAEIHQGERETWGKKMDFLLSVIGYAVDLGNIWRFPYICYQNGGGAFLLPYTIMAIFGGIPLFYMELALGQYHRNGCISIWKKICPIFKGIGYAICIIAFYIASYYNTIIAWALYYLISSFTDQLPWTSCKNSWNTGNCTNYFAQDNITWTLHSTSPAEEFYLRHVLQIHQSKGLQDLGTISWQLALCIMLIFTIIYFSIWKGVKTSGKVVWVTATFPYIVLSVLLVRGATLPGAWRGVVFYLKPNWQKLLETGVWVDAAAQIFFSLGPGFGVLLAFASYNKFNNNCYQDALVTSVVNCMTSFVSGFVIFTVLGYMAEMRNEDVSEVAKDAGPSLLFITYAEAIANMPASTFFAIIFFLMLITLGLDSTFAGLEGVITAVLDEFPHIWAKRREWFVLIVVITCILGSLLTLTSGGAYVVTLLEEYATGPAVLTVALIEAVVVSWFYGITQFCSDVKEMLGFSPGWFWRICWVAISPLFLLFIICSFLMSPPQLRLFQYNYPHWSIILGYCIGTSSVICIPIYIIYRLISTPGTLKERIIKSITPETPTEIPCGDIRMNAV
T1 sequence (O55192 whole entry): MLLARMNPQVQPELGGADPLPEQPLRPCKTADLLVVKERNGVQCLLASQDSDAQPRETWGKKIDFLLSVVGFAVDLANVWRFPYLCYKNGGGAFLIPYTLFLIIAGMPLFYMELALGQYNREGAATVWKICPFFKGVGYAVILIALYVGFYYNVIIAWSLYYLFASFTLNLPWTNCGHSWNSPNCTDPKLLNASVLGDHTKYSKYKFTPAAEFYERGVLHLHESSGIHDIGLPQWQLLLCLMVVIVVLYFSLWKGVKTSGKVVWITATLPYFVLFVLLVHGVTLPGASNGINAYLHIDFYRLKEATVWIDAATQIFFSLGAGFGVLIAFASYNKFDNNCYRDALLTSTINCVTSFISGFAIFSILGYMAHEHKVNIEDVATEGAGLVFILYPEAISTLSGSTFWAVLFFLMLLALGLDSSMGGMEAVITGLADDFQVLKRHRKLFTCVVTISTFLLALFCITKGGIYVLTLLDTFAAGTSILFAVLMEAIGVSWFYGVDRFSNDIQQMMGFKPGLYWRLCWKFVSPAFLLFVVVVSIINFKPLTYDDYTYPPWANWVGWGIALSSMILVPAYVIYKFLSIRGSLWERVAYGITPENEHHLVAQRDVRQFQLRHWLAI

Structure (SMILES) | paw placement performance (6-OHDA lesioned rat; 10 mg/kg, PO in combination with low dose L-DOPA, FIG. 6) | performance in the paw placement task (6-OHDA lesioned rat; alone, 3-30 mg/kg, PO) | Rat Locomotor Activity Total Distance Traveled ± S.E.M. (rats; 1 mg/kg) | Rat Locomotor Activity Total Distance Traveled ± S.E.M. (rats; 3 mg/kg) | Rat Locomotor Activity Total Distance Traveled ± S.E.M. (rats; 10 mg/kg) | % Transporter Occupancy, NET ([1]; 1 mg/kg PO) | % Transporter Occupancy, NET ([1]; 3 mg/kg PO) | % Transporter Occupancy, NET ([1]; 10 mg/kg PO) | % Transporter Occupancy, NET ([1]; 30 mg/kg PO) | % Transporter Occupancy, SERT (5-HT Transporter (SERT); 1 mg/kg PO) | % Transporter Occupancy, SERT (5-HT Transporter (SERT); 3 mg/kg PO) | % Transporter Occupancy, SERT (5-HT Transporter (SERT); 10 mg/kg PO) | % Transporter Occupancy, SERT (5-HT Transporter (SERT); 30 mg/kg PO)
CNC[C@@H]1CCCC[C@@]1(O)c1ccc(Cl)c(Cl)c1 [Compound 4] | significantly increased paw placement performance | little or no improvement in performance | – | – | – | – | – | – | – | – | – | – | –
CN(C)C[C@@H]1CCCC[C@@]1(O)c1ccc(Cl)c(Cl)c1 (single isomer, unassigned) [Compound 2, cis-1-(3,4-dichlorophenyl)-2-((dimethylamino)methyl)cyclohexanol] | – | – | ° (100-2500 (°)) | ° (100-2500 (°)) | °°° (>5001 (°°°)) | 19% | 44% | 74% | 89% | 11% | −1% | 6% | 5%
